Source: patent US5855906A, “Intravaginal drug delivery devices for the administration of 17β-oestradiol precursors” (priority 1994, dated 1999)
Values after ≈ are worked out from the molar mass of the structure shown.

How the values were obtained:
[1] = Stability during storage (observed in dissolution samples); settings: dissolution medium samples
[2] = Silicone solubility at 37 °C in Dow Corning 360 medical fluid; type: physicochemical; settings: organic solvent or mixture, Dow Corning 360 medical fluid, 37 °C, read-out: Silicone solubility
Method: Silicone solubility was determined at 37° C. in Dow Corning (Trade Mark) 360 medical fluid.

[3] = in vitro; settings: human, blood
[4] = Plasma 17β-oestradiol in post-menopausal women with 60 μg intravaginal ring, 14 days (Example 10); settings: 60 μg ring, over 14 days
[5] = In vitro dissolution: mean daily release from full-length-core rings over up to 90 days in three media; type: physicochemical; settings: for Mean Daily Release: 9 × 54 mm ring, core 141 × 2 mm, 37 °C, N = 4
Description: In all cases the ring geometries comprise a ring of dimensions 9 mm (cross-sectional diameter)×54 mm (outer diameter) and containing a full length core (141 mm) of cross-sectional diameter 2 mm. […] The saline and benzalkonium chloride-containing media were chosen to ensure `sink conditions` in at least one medium for each intravaginal ring. It will be recognised by those skilled in the art that the term `sink conditions` refers to that set of experimental conditions in vitro which effectively simulates the active haemoperfusion that occurs in vivo, and which results in a maximum drug concentration gradient and maximum drug diffusion rate, at any given time, across the aqueous boundary layer. Thus, an in vitro dissolution experiment can be designed such that the solution solubility of the released drug in the dissolution medium is much greater than its bulk concentration in this medium at any given time, for example, by micellar drug solubilisation due to incorporation of a surfactant such as benzalkonium chloride (BKC), at a concentration above its critical micelle concentration. Thus, each ring was suspended by a thread in an individual closed flask containing the dissolution medium, maintained at a constant temperature of 37° C. The contents of the flask were gently agitated in order to prevent the occurrence of a hydrostatic layer on the surface of the ring. After 24 hours, the ring was removed and suspended in a flask of fresh dissolution medium of identical volume by a method identical to that previously described.

[6] = Nominal in vitro daily release from intravaginal rings under sink conditions (1% w/v benzalkonium chloride, 37 °C); type: physicochemical; settings: calculated as anhydrous 17β-oestradiol
Method: The nominal in vitro release rates set out in Table 1 for the rings of Examples 1-5 were determined under sink conditions of 1% (w/v) benzalkonium chloride. These release rates were determined in the following manner.
Each ring (n=4) was suspended in the dissolution medium in an individual flask which is then capped, placed in a suitable oven at 37° C. and shaken. The dissolution medium was changed every 24 hours (±30 minutes). An aliquot of the used dissolution medium was analysed by high performance liquid chromatography (HPLC) using reverse phase packing and UV detection (at 235 nm for 17β-oestradiol-3-acetate and for
. The sensitivity of the original and improved analytical methods is 5 μg/100 ml.

[7] = Aqueous solubility in distilled water at 20 °C; settings: water
[8] = In vitro release from rings of varying core length and apparent/standard k value (Crank's equation); type: physicochemical; set-up: Standard k: unit not given here; settings: for k: in µg/day/mm; for Mean Daily Release (as precursor): 250 ml 1% (w/v) BKC
Description: Precursor release from a cylindrical device of core design, which comprises a polymer matrix in the form of a core incorporating 17β-oestradiol precursor and a sheath surrounding the core, can be described by Crank's equation: [formula] in which R=precursor release rate (μg/day)
Crank's equation relates the precursor release rate (R), in sink conditions, to the solubility (C2 S) and diffusibility (D) of the precursor in the polymer matrix, its partition characteristics (π) between the polymer matrix and the dissolution medium; and the ring dimensions (l, b, a). For any given precursor in any given polymer matrix, CS, D and π will be constant and can be grouped together to form the composite constant, k:
The k value can be empirically derived using Crank's equation in the following manner: [formula]
The k value is dependent on core length for certain of the 17β-oestradiol precursors (see Example 6 hereinafter). Accordingly, the k value at a core length of 35 mm has been denoted "standard k" value hereinafter.
Intravaginal drug delivery devices in the form of rings were prepared, each with a ring geometry as described in Table 3, by following the General Method of Manufacture set out hereinabove.
The dissolution medium was changed daily, following the protocol set out hereinabove. Mean daily release rates from the second week of dissolution experiments were used to determine the apparent k values presented in Table 3.
It was, therefore, decided to determine k values at a core length of 35 mm and such k values are hereinafter referred to as "standard k" values.
The standard k value was determined from the mean daily release rates observed in Example 6. The dissolution medium of 1.0% (w/v) of an aqueous solution of benzalkonium chloride was used in respect of the various 17β-oestradiol precursors, so as to ensure sink conditions.

solubility [2]: 186 µg/mL (≈ 592 µM) | half-life [3]: < 1 min | mean increase in plasma 17β-oestradiol [4]: 117.98 pmol/L | Mean Daily Release ([5]; 0.133% (w/v) BKC): 700 μg per day | Mean Daily Release ([5]; 0.9% (w/v) saline): 350 μg per day | Mean Daily Release ([5]; 1.0% (w/v) BKC): 850 μg per day | nominal in vitro daily release rate ([6]; "60 μg" ring, core 2×12 mm): 57.5 to 62.5 µg | nominal in vitro daily release rate ([6]; "120 μg" ring, core 2×24 mm): 115 to 125 µg | nominal in vitro daily release rate ([6]; "240 μg" ring, core 2×47 mm): 230 to 250 µg | solubility [7]: 3.8 µg/mL (≈ 12.1 µM) | apparent k value versus core length ([8]; Table 3 rings, 1% (w/v) BKC): varies with core length | Mean Daily Release ([8]; Table 4, 1.0% (w/v) BKC, core length 35 mm, n = 5): 236.66 µg/day | Standard k ([8]; Table 4, core length 35 mm, 1.0% (w/v) BKC): 10.017 | k (standard k) ([8]; Table 5, core length 35 mm): 10.017 μg/day/mm | k ([8]; core length 6 mm, 1% (w/v) BKC): 12.347 | Mean Daily Release (as precursor) ([8]; core length 6 mm, n = 5): 49.25 µg/day | k ([8]; core length 12 mm, 1% (w/v) BKC): 11.517 | Mean Daily Release (as precursor) ([8]; core length 12 mm, n = 5): 91.88 µg/day | k ([8]; core length 25 mm, 1% (w/v) BKC): 10.658 | Mean Daily Release (as precursor) ([8]; core length 25 mm, n = 5): 177.15 µg/day | k ([8]; core length 35 mm, 1% (w/v) BKC): 10.017 | Mean Daily Release (as precursor) ([8]; core length 35 mm, n = 5): 236.66 µg/day
SMILES: CC(=O)Oc1ccc2c(c1)CC[C@@H]1[C@@H]2CC[C@]2(C)[C@@H](O)CC[C@@H]12 [17β-oestradiol-3-acetate]
stability during storage [1]: hydrolysis to 17β-oestradiol during storage | release in vitro from intravaginal rings (in words) ([5]; BKC and saline media, ring geometry of Table 2): substantial release, in both BKC and in saline
